Columns and labels:
Format in all cases: in vivo
crabgrass = assay: Test Example 3: weedkilling efficacy through soil treatment; D: crabgrass; conditions: soil treatment, treatment dosage 320 g/ha
Summary of the method: (§1)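 Crop and weed responses were judged three weeks after a uniform surface spray of the water-diluted emulsion at the given g/ha rate. Seeds sat beneath about 1.5 cm of sterilized diluvial soil, and boxes stood in a greenhouse at 25 to 30° C.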

green foxtail = assay: Test Example 3: weedkilling efficacy through soil treatment; E: green foxtail; conditions: soil treatment, treatment dosage 320 g/ha
Summary of the method: as §1

barnyard grass [1] = assay: Test Example 3: weedkilling efficacy through soil treatment; F: barnyard grass; conditions: soil treatment, treatment dosage 320 g/ha
Source text: (§2) Weedkilling Efficacy Test Through Soil Treatment
(§3) Sterilized diluvial soil was introduced into 21 cm long, 13 cm wide, 7 cm deep plastic boxes, and seeds of crabgrass, green foxtail, barnyard grass, wild oat, black-grass, Italian ryegrass, common wind-grass, Indian mallow, redroot pigweed, fig-leafed goosefoot, chickweed, catchweed, birds-eye speedwell, corn, soybean, rice, wheat, beet and rapeseed were each spot-sown, and covered with about 1.5 cm of soil. Next, emulsions of compounds of the present invention prepared according to compounding example 2 were diluted with water to give the specified dosages, and applied uniformly onto the soil surface with a small sprayer. The plants were grown by placing the plastic boxes in a greenhouse at 25 to 30° C., and 3 weeks after the pesticide treatment the effect on each type of plant was investigated on the basis of the assessment criteria of test example 1.
(§4) A: barnyard grass, B: bulrush, C: oval-leafed pondweed, D: crabgrass, E: green foxtail, F: barnyard grass, G: wild oat, H: black-grass, I: Italian ryegrass, J: common wind-grass, K: Indian mallow, L: redroot pigweed, M: fig-leafed goosefoot, N: chickweed, O: catchweed, p: birds-eye speedwell, a: transplanted rice, b: directly sown rice, c: corn, d: soybean, e: wheat, f: beet, g: rapeseed
(§5) Further, pesticide dosage (g/ha) indicates the concentration regulated such that treatment was with only the stated number of grams (g), when calculated per hectare (ha).

wild oat = assay: Test Example 3: weedkilling efficacy through soil treatment; G: wild oat; conditions: soil treatment, treatment dosage 320 g/ha
Summary of the method: as §1

black-grass = assay: Test Example 3: weedkilling efficacy through soil treatment; H: black-grass; conditions: soil treatment, treatment dosage 320 g/ha
Summary of the method: as §1

Italian ryegrass = assay: Test Example 3: weedkilling efficacy through soil treatment; I: Italian ryegrass; conditions: soil treatment, treatment dosage 320 g/ha
Summary of the method: as §1

common wind-grass = assay: Test Example 3: weedkilling efficacy through soil treatment; J: common wind-grass; conditions: soil treatment, treatment dosage 320 g/ha
Source text: as §2, §3, §4, §5

Indian mallow = assay: Test Example 3: weedkilling efficacy through soil treatment; K: Indian mallow; conditions: soil treatment, treatment dosage 320 g/ha
Summary of the method: as §1

redroot pigweed = assay: Test Example 3: weedkilling efficacy through soil treatment; L: redroot pigweed; conditions: soil treatment, treatment dosage 320 g/ha
Summary of the method: as §1

fig-leafed goosefoot = assay: Test Example 3: weedkilling efficacy through soil treatment; M: fig-leafed goosefoot; conditions: soil treatment, treatment dosage 320 g/ha
Summary of the method: as §1

chickweed = assay: Test Example 3: weedkilling efficacy through soil treatment; N: chickweed; conditions: soil treatment, treatment dosage 320 g/ha
Summary of the method: as §1

birds-eye speedwell = assay: Test Example 3: weedkilling efficacy through soil treatment; p: birds-eye speedwell; conditions: soil treatment, treatment dosage 320 g/ha
Summary of the method: as §1

directly sown rice = assay: Test Example 3: soil treatment, effect on crop; b: directly sown rice; conditions: soil treatment, treatment dosage 320 g/ha
Summary of the method: as §1

corn = assay: Test Example 3: soil treatment, effect on crop; c: corn; conditions: soil treatment, treatment dosage 320 g/ha
Summary of the method: as §1

soybean = assay: Test Example 3: soil treatment, effect on crop; d: soybean; conditions: soil treatment, treatment dosage 320 g/ha
Summary of the method: as §1

wheat = assay: Test Example 3: soil treatment, effect on crop; e: wheat; conditions: soil treatment, treatment dosage 320 g/ha
Summary of the method: as §1

beet = assay: Test Example 3: soil treatment, effect on crop; f: beet; conditions: soil treatment, treatment dosage 320 g/ha
Summary of the method: as §1

rapeseed = assay: Test Example 3: soil treatment, effect on crop; g: rapeseed; conditions: soil treatment, treatment dosage 320 g/ha
Source text: as §2, §3, §4, §5

barnyard grass [2] = assay: Test Example 1: weedkilling efficacy, preemergent weed treatment in the submerged state; A: barnyard grass; conditions: treatment dosage 320 g/ha
Summary of the method: (§6)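 Emulsion diluted with water to the specified per-hectare dosage is applied onto flood water (4 cm) over alluvial soil on the sowing day, with barnyard grass, bulrush and pondweed seeded and rice (2.5-leaf) transplanted; plants grow at 25–30 °C and are rated at 3 weeks.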

bulrush [3] = assay: Test Example 1: weedkilling efficacy, preemergent weed treatment in the submerged state; B: bulrush; conditions: treatment dosage 320 g/ha
Summary of the method: as §6

oval-leafed pondweed [4] = assay: Test Example 1: weedkilling efficacy, preemergent weed treatment in the submerged state; C: oval-leafed pondweed; conditions: treatment dosage 320 g/ha
Summary of the method: as §6

transplanted rice = assay: Test Example 1: preemergent weed treatment in the submerged state, effect on crop; a: transplanted rice; conditions: treatment dosage 320 g/ha
Summary of the method: as §6

barnyard grass [5] = assay: Test Example 2: weedkilling efficacy, growth period weed treatment in the submerged state; A: barnyard grass; conditions: treatment dosage 320 g/ha
Summary of the method: (§7)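 First, alluvial soil in pots is flooded to 4 cm and mixed seed is sown. Next, plants grow in a greenhouse at 25 to 30° C until the 1-2 leaf stage. Then diluted emulsion is applied onto the water surface at the given g/ha rate, and injury is assessed after 3 weeks.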

bulrush [6] = assay: Test Example 2: weedkilling efficacy, growth period weed treatment in the submerged state; B: bulrush; conditions: treatment dosage 320 g/ha
Summary of the method: as §7

oval-leafed pondweed [7] = assay: Test Example 2: weedkilling efficacy, growth period weed treatment in the submerged state; C: oval-leafed pondweed; conditions: treatment dosage 320 g/ha
Summary of the method: as §7

SMILES | D: crabgrass, weedkilling efficacy grade (crabgrass) | E: green foxtail, weedkilling efficacy grade (green foxtail) | F: barnyard grass, weedkilling efficacy grade (barnyard grass [1]) | G: wild oat, weedkilling efficacy grade (wild oat) | H: black-grass, weedkilling efficacy grade (black-grass) | I: Italian ryegrass, weedkilling efficacy grade (Italian ryegrass) | J: common wind-grass, weedkilling efficacy grade (common wind-grass) | K: Indian mallow, weedkilling efficacy grade (Indian mallow) | L: redroot pigweed, weedkilling efficacy grade (redroot pigweed) | M: fig-leafed goosefoot, weedkilling efficacy grade (fig-leafed goosefoot) | N: chickweed, weedkilling efficacy grade (chickweed) | P: birds-eye speedwell, weedkilling efficacy grade (birds-eye speedwell) | b: directly sown rice, effect on crop grade (directly sown rice) | c: corn, effect on crop grade (corn) | d: soybean, effect on crop grade (soybean) | e: wheat, effect on crop grade (wheat) | f: beet, effect on crop grade (beet) | g: rapeseed, effect on crop grade (rapeseed) | A: barnyard grass, weed kill grade (barnyard grass [2]) | B: bulrush, weed kill grade (bulrush [3]) | also measured
CC(C)(C(=O)Nc1cc(Cl)cc(Cl)n1)N1COCN(c2ccccc2)C1=S [A-2-18, N-(4,6-dichloropyridin-2-yl)-2-methyl-2-(5-phenyl-4-thioxo-1,3,5-oxadiazinan-3-yl) propionamide] | 5 (weed kill ratio 90% or more, (practically complete withering)) | 5 (weed kill ratio 90% or more, (practically complete withering)) | 5 (weed kill ratio 90% or more, (practically complete withering)) | 3 (weed kill ratio 40% or more, less than 70%) | 5 (weed kill ratio 90% or more, (practically complete withering)) | 5 (weed kill ratio 90% or more, (practically complete withering)) | 5 (weed kill ratio 90% or more, (practically complete withering)) | 2 (weed kill ratio 20% or more, less than 40%) | 3 (weed kill ratio 40% or more, less than 70%) | 3 (weed kill ratio 40% or more, less than 70%) | 3 (weed kill ratio 40% or more, less than 70%) | 5 (weed kill ratio 90% or more, (practically complete withering)) | 5 (weed kill ratio 90% or more, (practically complete withering)) | 1 (weed kill ratio 5% or more, less than 20%) | 0 (weed kill ratio 5% or less (practically no effect)) | 0 (weed kill ratio 5% or less (practically no effect)) | 3 (weed kill ratio 40% or more, less than 70%) | 3 (weed kill ratio 40% or more, less than 70%) | – | – | –
Cc1cc(Cl)nc(NC(=O)C(C)(C)N2COCN(c3ccccc3)C2=O)c1 [A-2-26] | 5 (weed kill ratio 90% or more, (practically complete withering)) | 5 (weed kill ratio 90% or more, (practically complete withering)) | 5 (weed kill ratio 90% or more, (practically complete withering)) | 5 (weed kill ratio 90% or more, (practically complete withering)) | 5 (weed kill ratio 90% or more, (practically complete withering)) | 5 (weed kill ratio 90% or more, (practically complete withering)) | 5 (weed kill ratio 90% or more, (practically complete withering)) | 0 (weed kill ratio 5% or less (practically no effect)) | 2 (weed kill ratio 20% or more, less than 40%) | 4 (weed kill ratio 70% or more, less than 90%) | 3 (weed kill ratio 40% or more, less than 70%) | 5 (weed kill ratio 90% or more, (practically complete withering)) | 5 (weed kill ratio 90% or more, (practically complete withering)) | 0 (weed kill ratio 5% or less (practically no effect)) | 2 (weed kill ratio 20% or more, less than 40%) | 3 (weed kill ratio 40% or more, less than 70%) | 3 (weed kill ratio 40% or more, less than 70%) | 4 (weed kill ratio 70% or more, less than 90%) | 5 (weed kill ratio 90% or more, (practically complete withering)) | 5 (weed kill ratio 90% or more, (practically complete withering)) | C: oval-leafed pondweed, weed kill grade (oval-leafed pondweed [4]): 5 (weed kill ratio 90% or more, (practically complete withering)); a: transplanted rice, effect on crop grade (transplanted rice): 4 (weed kill ratio 70% or more, less than 90%); A (barnyard grass) weedkilling efficacy grade (barnyard grass [5]): 5 (weed kill ratio 90% or more, (practically complete withering)); B (bulrush) weedkilling efficacy grade (bulrush [6]): 5 (weed kill ratio 90% or more, (practically complete withering)); C (oval-leafed pondweed) weedkilling efficacy grade (oval-leafed pondweed [7]): 5 (weed kill ratio 90% or more, (practically complete withering))
CC(C)(C(=O)Nc1ccc2ccccc2n1)N1COCN(c2ccccc2)C1=O [A-1-24] | 3 (weed kill ratio 40% or more, less than 70%) | 3 (weed kill ratio 40% or more, less than 70%) | 2 (weed kill ratio 20% or more, less than 40%) | 0 (weed kill ratio 5% or less (practically no effect)) | 1 (weed kill ratio 5% or more, less than 20%) | 3 (weed kill ratio 40% or more, less than 70%) | 4 (weed kill ratio 70% or more, less than 90%) | 0 (weed kill ratio 5% or less (practically no effect)) | 0 (weed kill ratio 5% or less (practically no effect)) | – | 0 (weed kill ratio 5% or less (practically no effect)) | 4 (weed kill ratio 70% or more, less than 90%) | 0 (weed kill ratio 5% or less (practically no effect)) | 0 (weed kill ratio 5% or less (practically no effect)) | 0 (weed kill ratio 5% or less (practically no effect)) | 0 (weed kill ratio 5% or less (practically no effect)) | 0 (weed kill ratio 5% or less (practically no effect)) | 0 (weed kill ratio 5% or less (practically no effect)) | 5 (weed kill ratio 90% or more, (practically complete withering)) | 5 (weed kill ratio 90% or more, (practically complete withering)) | C: oval-leafed pondweed, weed kill grade (oval-leafed pondweed [4]): 5 (weed kill ratio 90% or more, (practically complete withering)); a: transplanted rice, effect on crop grade (transplanted rice): 0 (weed kill ratio 5% or less (practically no effect)); A (barnyard grass) weedkilling efficacy grade (barnyard grass [5]): 4 (weed kill ratio 70% or more, less than 90%); B (bulrush) weedkilling efficacy grade (bulrush [6]): 5 (weed kill ratio 90% or more, (practically complete withering)); C (oval-leafed pondweed) weedkilling efficacy grade (oval-leafed pondweed [7]): 5 (weed kill ratio 90% or more, (practically complete withering))

Source: patent US9738634B2, “Heterocyclic amide compound and herbicide” (SYNGENTA PARTICIPATIONS AG, priority 2013, dated 2017)
